# Test results published in US20180000802A1, “PHARMACEUTICAL COMPOSITION FOR PREVENTION AND TREATMENT OF MENTAL DISEASE WITH ENHANCED NMDAR FUNCTION” (INSTITUTE FOR BASIC SCIENCE, priority 2015, published 2018).
# Entries after “also recorded” stand apart in the source; their conditions may differ.
# Legend:
# [1] = test system: wild-type mouse and IRSp53 deficient mouse; assay: Nerve cell firing of the hippocampus in the anesthetized mouse; format: in vivo; details: IRSp53 deficient mouse compared to wild-type mice after memantine injection
# Method: (§1) The memantine was administered to the IRSp53 deficient mouse, and the synapse of the medial prefrontal cortex was structurally and functionally analyzed. In the experiment, the brain slices were not made, an anesthetic drug (1.5 g/kg) named Urethane was used on the mouse to perform the electrophysiological experiment in a condition in which the neural circuitry in the mouse is maintained, and the electrical signal firing of the nerve cell was observed, In detail, in the experiment, the mouse was anesthetized, a glass electrode for measuring the electrical signal was inserted in the medial prefrontal cortex and the hippocampus, and measured. A and I of FIG. 7 show the positions through which each electrode is inserted. From the result of comparing the nerve cell firing of the medial prefrontal cortex of the IRSp53 deficient mouse, in the IRSp53 deficient mouse, the nerve cell firing of the medial prefrontal cortex decreased. Specifically, in the IRSp53 deficient mouse, the nerve cell firing specific to the excitatory nerve cell decreased (B, C and D of FIG. 7).
# [2] = test system: IRSp53 deficient mouse; assay: Nerve cell firing of the medial prefrontal cortex in the anesthetized mouse; format: in vivo; details: IRSp53 deficient mice, urethane anesthesia, 10 mg/kg intraperitoneally, observed after 30 minutes
# Method: as §1
# [3] = test system: NMDAR; assay: Electrophysiological measurement of NMDAR-LTD in hippocampal brain slices; format: cell-based; details: hippocampal brain slices of IRSp53 deficient mouse, weaker NMDAR-LTD than in normal mouse; memantine treatment
# Method: (§2) To observe whether the memantine and the MPEP restore the NMDAR function observed on the hippocampus of the IRSp53 deficient mice to a normal range, the electrical signal flow of the synapses through the NMDAR was measured by the electrophysiological experiment.
# When the NMDAR is activated by electrically stimulating the never cell, an ion transferred from the outside of the nerve cell to the inside of the nerve cell through the NMDAR according to the activation level exists, and by the ion concentration difference of the inside and outside of the cell, various proteins inside the cell are also activated, thereby showing electrical reaction of the nerve cell with respect to the stimulation. The state in which this reaction is maintained for 30 minutes or longer is called Long-term potentiation (LTP) and Long-term depression (LTD), and when the NMDAR is intensively activated, the LTP may be induced, and when the NMDAR is weakly activated a long-term weakening, LTD may be induced.
# In the present experiment, the Long-term potentiation (LTP) and the Long-term depression experiments were conducted. First, the NMDAR properties of the nerve cell of the IRSp53 deficient mice were electrophysiologically measured. […]
# [4] = test system: IRSp53 deficient mice; assay: 3-chamber sociability test; format: in vivo, mouse; details: memantine 10 mg/kg, MPEP 30 mg/kg; for mice preference (sociability behavior) in the 3-chamber sociability test: intraperitoneal injection 30 minutes before the test, vs saline control; for sedation due to side effects: intraperitoneal injection
# Method: For the experiment animals of the present invention, wild-type mice backcrossed into a C57BL/6J background and IRSp53 deficient mice were used. The mice were at 2-4 months of age. In addition, in the present invention, all of the experiments were conducted by maintaining a temperature of 20-22° C. and a humidity of 30-40% while the lights are turned on during 7:00 am to 7:00 pm. As the memantine, which is an NMDAR inhibitor and the MGluR inhibitor, the MPEP indirectly inhibiting the NMDAR is dissolved in physiological saline and used. The memantine is used in a concentration of 10 mg (10 mg/kg) per unit weight, and the MPEP is used in a concentration of 30 mg (30 mg/kg) per unit weight, and the drug was administered to the experiment mice by intraperitoneal injection before 30 minutes of every experiment. NMDAR was tested with respect to the sociability behavior of hyperactivated mice. The 3-chamber sociability test and the direct interaction test, which are the most widely used among the behavioral experiments for identifying sociability behavior of mice. The 3-chamber sociability test was conducted by using a behavior experiment box separated into 3 sections. […] A, B, and C of FIG. 1 show the measurement based on the box bottom, the horizontal side surface and the vertical side surface, respectively, and the experiment box was manufactured exposing that the top so the experiment may be photographed by a camera (FIG. 1). In the basic 3-chamber sociability test, a mouse (stranger) was placed in one side and an object (small toy block) without scent was placed in the other side, and the normal mouse (WT) and the deficient mouse were placed in the middle chamber to observe how much attention was given to the other mouse and explored and time was spent. The detailed experiment method of the present invention is described below. First, the wild-type mouse and the IRSp53 deficient mouse were prepared. In addition, before 10 minutes of the experiment, the mouse to be experimented was put into a soundproof booth in which the experiment was to be conducted. 10 minutes later, the holes in the inner wall were blocked and the mouse was put into the middle area. Another 10 minutes later, the holes were opened, and the mouse was allowed to move freely around the 3 chambers. […] During 10 minutes of experiment where the Stranger 1 and the object were placed, the time of the mouse staying at the two areas were measured. In addition, to measure the time of the actual mice exploring the stranger 1 or the object, the time when the nose of the mouse crosses over a virtual line 2 cm away from the plastic cup was measured. […]
# [5] = test system: NMDAR; assay: NMDA/AMPA ratio, electrophysiology in brain slices; format: cell-based; details: IRSp53 deficient mouse, ratio increased vs wild-type; MPEP treatment
# Method: as §2
# In the present experiment, the Long-term potentiation (LTP) and the Long-term depression experiments were conducted. First, the NMDAR properties of the nerve cell of the IRSp53 deficient mice were electrophysiologically measured. The measurement was experimented and conducted by the method disclosed in the paper of Kim M H et al. (Kim, M. H. et al. Enhanced NMDA Receptor-Mediated Synaptic Transmission, Enhanced Long-Term Potentiation, and Impaired Learning and Memory in Mice Lacking IRSp53. J Neurosci 29, 1586-1595, doi:Doi 10.1523/Jneurosci.4306-08.2009 (2009)). The equipment used for the electrophysiological measurement was MultiClamp 700B amplifier and Axopatch 200B of Molecular Devices, and Clampex 9.2 and Clampfit 9 software of the same company were used. During the experiment, BX50WI microscope of Olympus was used.
# In the present experiment, first, for all of the electrophysiological experiment, brain slices were made from the brains of the normal mice and the IRSp53 deficient mice. To make the slices, VT1200S model vibratome of Leica was used. […]
smiles,measurement,setting,value
CC12CC3CC(C)(C1)CC(N)(C3)C2 [memantine],nerve cell firing change in the hippocampus,[1],the firing was greater
same,nerve cell firing of the medial prefrontal cortex,[2],the drug showed good effects; also recorded: restored to the normal range
same,NMDAR-LTD,[3],restored
same,mice preference (sociability behavior) in the 3-chamber sociability test,[4],improved to a level of the wild-type mice
same,sedation due to side effects,[4],no sedation due to side effects
"Cc1cccc(C#Cc2ccccc2)n1 [MPEP, 2-Methyl-6-(phenylethynyl)pyridine]",mice preference (sociability behavior) in the 3-chamber sociability test,[4],improved to a level of the wild-type mice
same,sedation due to side effects,[4],no sedation due to side effects
same,NMDA/AMPA ratio,[5],restored to the level of the wild-type mouse
